From US12630501B2, “Anti-fibrotic compounds and use thereof” (HADASIT MEDICAL RESEARCH SERVICES AND DEVELOPMENT LTD., priority 2019, dated 2026) come the findings set out here.

Holding throughout (type): cell-based, human
In series [1] the test system is FLIP. As to the kind of experiment: FLIP protein by Western blot and flow cytometry in IPF-lung myofibroblasts. To be noted: 16 h. As to the method:
(§1) Human lung myofibroblasts Differentiated fibroblasts from IPF-lungs and controls from patient lung biopsies performed for tumor diagnosis were obtained under a protocol detailed in Wallach-Dayan et al., J. Autoimmun. 59: 67-76, 2015. LL 97A (AlMy) (ATCC® CCL-191™)-IPF-lung, and LL 24 (ATCC® CCL-151™)-normal lung fibroblast cell lines were used.
FLIP protein in lung myofibroblasts Standard WB and flow cytometry were performed as described in Cohen et al., Am. J. Respir. Cell Mol. Biol. 40: 231-238, 2009.
(§2) FLIP downregulation from an OD of 1.85 to 0.49 (about 3.5-fold) was detected in WB (FIG. 4F), and a […] from a mean fluorescence intensity (MFI)=10^3 to only 10^1 was detected with flow cytometry (FIG. 4G). Thus, SIRT1-mediated Ku70-deacetylation stabilizes IPF-lung myofibroblast FLIP via Ku70/FLIP complex. This effect of CMH on Ku70 further disrupts Ku70/FLIP complex and destabilizes FLIP in IPF-lung myofibroblasts.
(§3) IPF cell line ATCC-191 (0.5×10^6), were exposed in culture (10% DMEM) to a compound of Formula 6 (1 or 3 μM) vs. 4% DMSO (vehicle) for 16 h. Ku70 immunoprecipitation with subsequent pan-acetyl (FIG. 8A) and immunoblots of Ku70 with anti-Ku70 mAb (FIG. 8B) or FLIP with anti-FLIP mAb (FIG. 8C) were measured. […] IPF-lung myofibroblasts decreased FLIP expression from an OD of 1.00 to 0.51 (about twofold, FIG. 8C).
IPF cell line ATCC-191 (0.5×10^6), were exposed in culture (10% DMEM) to a compound of Formula 12 (1 μM), vs. 4% DMSO (vehicle) for 16 h. Immunoblots of FLIP with anti-FLIP mAb were performed (FIG. 9). […] Thus, the compound of Formula 12 attenuates FLIP stabilization in IPF-lung myofibroblast.
On the technique in general: A western blot detects proteins with antibodies after separation by electrophoresis.

Series [2] relates to Ku70. As to the kind of experiment: Ku70 immunoprecipitation with pan-acetyl / Ku70 immunoblot in IPF-lung myofibroblasts. As to the method:
as §1
Immunoprecipitation and immunoblotting Standard protocols were performed as described in Golan-Gerstl et al., Am. J. Respir. Cell Mol. Biol. 47: 271-279, 2012.
as §2, §3

Series [3] concerns IPF cell line ATCC-191. Briefly: Caspase-3 cleaved vs. uncleaved immunoblot (direct cytotoxicity). The following applies: 72 h. As to the method:
IPF cell line ATCC-191 (0.5×10^6), were exposed in culture (10% DMEM) to a compound of Formula 6 (0.1-30 μM) vs. 4% DMSO (vehicle) for 72 h. Cells were lysed and immunoblots of caspase-3 cleaved vs. uncleaved were performed. […] Lower concentrations of a compound of Formula 6 treated cells even decreased their ratio indicating no toxicity of the analogue at these concentrations.

Where “and” joins values, the source holds several entries; their conditions need not be identical. Equal values may be shown once.

In the case of `O=C(CCCCOc1ccc2ccccc2c1)NO` [Formula 6], the “Decrease of FLIP expression” value in series [1] (Formula 6 1 or 3 μM) is given as “about twofold”. Further, the “FLIP expression OD (anti-FLIP immunoblot)” value in series [1] (Formula 6 1 or 3 μM, ATCC-191, vehicle 1.00) is 0.51 OD. Also, the “Increase of Ku70 acetylation” value in series [2] (Formula 6 1 μM, 16 h) is given as “about 80 fold”. The “Ku70 levels (anti-Ku70 immunoblot)” value in series [2] (Formula 6 1 μM, 16 h) is reported as “without changing”. The “Ku70 acetylation, optical density ratio to GAPDH (OD), pan-acetyl IB of Ku70 IP” value in series [2] (Formula 6 1 μM, 16 h, ATCC-191, vehicle 0.007) is 0.55 OD. Besides, in series [2] (IPF-lung myofibroblasts), the “Inhibition of Ku70-deacetylation compared with CMH” value is given as “to a greater extent than CMH”. Further, the “Cleaved caspase-3” value in series [3] (0.1 μM) was 7.5; in series [3] (0.3 μM), 11.66; in series [3] (1 μM), 27.59; in series [3] (3 μM), 81.78; in series [3] (10 μM), 112.38; in series [3] (30 μM), 93.19. In addition, the “Cleaved/Uncleaved caspase-3” value is recorded as 0.27 in series [3] (0.1 μM); 0.18 in series [3] (0.3 μM); 0.46 in series [3] (1 μM); 1.10 in series [3] (3 μM); 1.43 in series [3] (10 μM); 2.49 in series [3] (30 μM). The “Uncleaved caspase-3” value in series [3] (0.1 μM) is reported as 27.37; in series [3] (0.3 μM) it was 65.84; in series [3] (1 μM) it was 60.57; in series [3] (3 μM), 74.31; in series [3] (10 μM) it was 78.84; in series [3] (30 μM), 37.4. Moreover, the “Direct cytotoxic effects on cells” value in series [3] (0.1-30 μM, in the absence of Fas) is “does not exert direct cytotoxic effects”.

For the compound `COc1ccc(OCCCCC(=O)NO)cc1` [Formula 12], in series [1] (Formula 12 1 μM), the “Decrease of FLIP levels” value is recorded as “about twofold”. For the same compound, the “FLIP levels, optical density ratio to GAPDH (OD)” value in series [1] (Formula 12 1 μM, ATCC-191, vehicle 9.5, 13.3 and 8.4) is 4.7 OD and 3.7 OD and 4.8 OD.
